Data reported in US11110070B2 (priority 2015, dated 2021).
Entries after “also recorded” stand apart in the source; their conditions may differ.

Legend:
129S6/SvEvTac mice = assay: Open field (OF) after reinstatement; assay type: in vivo
Method: OF protocol was administered as previously described (Richardson-Jones et al., 2010).

[1] = test system: adult hippocampal neurogenesis; assay: Doublecortin and Ki67 immunohistochemistry, dentate gyrus; assay type: in vivo, mice; settings: for number of Ki67+ cells: ketamine vs saline (FIG. 6K)
Method: Mice were deeply anesthetized with ketamine (100 mg kg) and transcardially perfused with IX phosphate buffer saline (PBS), followed by chilled 4% paraformaldehyde (PFA)/IX PBS (A15), Brains were post-fixed overnight in 4% PFA at 4° C., then cryoprotected in 30% sucrose/1× PBS, and stored at 4° C. Serial coronal sections (35 μm) were cut through the entire hippocampus on a cryostat and stored in IX PBS with 0.1% NaN3. Doublecortin (DCX) immunohistochemistry was performed as previously described (A15). For DCX immunohistochemistry, sections were washed in 1× PBS containing 0.5% Triton and then quenched in 0.3% H2O2 in IX PBS/CH3OH (1:1) for 15 min at room temperature. Sections were blocked in 10% normal donkey serum in 1× PBS with 0.5% Triton X-100 for 2 h at room temperature. Incubation with primary antibody was performed at 4° C. overnight (goat anti-DCX, 1:500, Santa Cruz Biotechnology, Santa Cruz, Calif., #SC 8,066) in 1× PBS with 0.5% Triton X-100. Sections were then incubated with a biotinylated secondary antibody (donkey anti-goat; 1:250, Jackson lmmunoResearch, West Grove, Pa.) for 2 h at room temperature. Sections were treated with avidin-biotin-peroxidase complex (ABC Elite Kit, Vector Labs, Burlingame, Calif.) followed by 3,3′ diaminobenzidine as a substrate for staining (Vector, Burlingame, Calif.).
Ki67 immunohistochemistry was performed as previously described (A16). For Ki67 immunohistochemistry, sections were washed in 1× PBS containing 0.5% Triton, and then blocked in 10% normal donkey serum in 1× PBS with 0.5% Triton X-100 for 2 h at room temperature. Incubation with primary antibody was performed at 4° C. overnight (rabbit anti-Ki67, 1:100, Vector Laboratories. Burlingame, Calif., #VP-RM04) in 1× PBS with 0.5% Triton X-100. Sections were then incubated with a biotinylated secondary antibody (donkey anti-rabbit; 1:250, Jackson ImmunoResearch, West Grove, Pa.) for 2 h at room temperature. Sections were treated with avidin-biotin-peroxidase complex (ABC Elite Kit, Vector Labs, Burlingame, Calif.) followed by 3,3′ diaminobenzidine as a substrate for staining (Vector, Burlingame, Calif.).
An investigator blind to treatment used a Zeiss Axioplan-2 upright microscope (Oberkochen, Germany) to count cells bilaterally in the granule cell layer of the dentate gyms throughout the entire rostra-caudal axis of the hippocampus (HPC). Every sixth section throughout the entire extent of the HPC was included in the analysis. Cells were counted bilaterally using a 20× objective. The average cells per section are presented throughout the text.

chronic PTSD = settings: intravenous infusion; compared with midazolam; cited from earlier work
C57BL/6NTac mice = assay: EPM in CORT model; assay type: in vivo; settings: ketamine or fluoxetine before CORT
Method: Experiment 5 (Pre-ketamine and pre-fluoxetine corticosterone (CORT)): C57BL16NTac mice were injected with ketamine (10, 30, 90 mg kg^−1, i.p.) 1 week before the start of CORT, or administered fluoxetine (18 mg kg^−1 per day) in the drinking water for 3 weeks before the start of CORT. Ketamine was purchased from Merial (100 mg/ml stock solution). Fluoxetine hydrochloride (160 μg/mL, equivalent to 18 mg kg^−1 per day in the drinking water) was purchased from Anawa Trading (Zurich, Switzerland) and dissolved in 0.45% hydroxypropyl-β-cyclodextrin (β-CD) (Sigma-Aldrich, Saint-Quentin Fallavier, France) solution. Following ketamine or fluoxetine treatment, CORT was administered for 3 weeks in the drinking water. CORT (4-pregnen-11b-DIOL-3 20-DIONE 21-hemisuccinate) (35 μg/ml) from. Sigma Aldrich (Saint-Quentin Fallavier, France) was dissolved in vehicle (0.45% β-CD). Control animals received vehicle (0.45% β-CD) throughout the duration of the experiment.
Testing was performed as previously described (A14). […] For the 12956/SvEv experiments, videos were scored using behavioral tracking software (TopScan, CleverSys, Reston, Va.). For the C57BL/6Ntac experiments, all parameters were measured using a videotracker (EPM3C. Bioseb, Vitrolles, France).

CNC1(c2ccccc2Cl)CCCCC1=O (racemic) [ketamine, (RS)-2-(2-chlorophenyl)-2-(methylamino)cyclohexanone]
number of rearing bouts in the OF (129S6/SvEvTac mice; ketamine 1 week prior to 1-shock reinstatement, vs saline): higher number of rearing bouts; also recorded: increased number of rearing bouts
number of rearing bouts in the OF (129S6/SvEvTac mice; ketamine 1 week prior to 3-shock reinstatement): comparable number of rearing bouts
number of Ki67+ cells ([1]; Ctrl mice): increases
number of Ki67+ cells ([1]; SD mice): not in SD mice
number of Ki67 cells in the dentate gyrus ([1]; ketamine administered after SD): significantly increases the number of Ki671 cells
DCX levels ([1]; ketamine in post-SD design (FIG. 6L)): does not alter DCX levels
adult hippocampal neurogenesis (levels of doublecortin and Ki67) ([1]; prophylactic ketamine before SD): did not observe an effect
PTSD symptom severity (chronic PTSD): significant and rapid reduction in PTSD symptom severity
time in the closed arms of EPM (anxiety-like phenotype) (C57BL/6NTac mice): Neither ketamine nor fluoxetine robustly protected
